Measured values from patent publication US5134125A, “Nutrient composition” (Kyowa Hakko Kogyo Co., Ltd., priority 1989, dated 1992).
Where a SMILES comes first, the peptide text is derived from it.

Columns and labels:
[1] = Influence of administered dipeptides on renal glutamine level; type: in vivo, C3H/He mice; details: mice, tail vein; for Concentration of Glutamine in kidney: 250 γmoles/kg body weight, kidneys excised after 20 minutes, mean ±SEM, five mice
Procedure: γ-L-Glutamine-L-glutamine and L-alany-L-glutamine were respectively administered to C3H/He mice (6 weeks of age, male, weighing 20 g) through the tail vein at a dose of 250 γmoles/kg body weight, and after 20 minutes, the kidneys were excised. The glutamine level in the organ was compared to that prior to the administration of the dipeptides. Five mice were used for each test group, and the results are shown by the mean ±SEM.

[2] = Change in concentration in blood of dipeptides administered to mice; type: in vivo, C3H/He mice; details: tail vein, 250 μmoles/kg body weight, FIG. 1
From the text: γ-L-Glutamyl-L-glutamine and L-alanyl-L-glutamine were respectively administered to C3H/He mice (6 weeks of age, male, weighing 20 g) through the tail vein at a dose of 250 μmoles/kg body weight, and blood was collected intermittently. Five mice were used for each test group, and the results are shown by the mean ±SEM.

[3] = Hydrolysis of dipeptides in mouse plasma; type: in vitro ADME, C3H/He mice; details: 3.13 mM, 37° C.; for Residual Rate: mean of five mice
Procedure: Each of the dipeptides shown in Table 2 below was added to 0.05 ml of plasma collected and prepared from C3H/He mice (6 weeks of age, male, weighing 20 g) to give a concentration of 3.13 mM, followed by reaction at 37° C. for 2, 5, 10 and 20 minutes. Five mice were used for each test group, and the results are shown by the mean value.

[4] = Hydrolysis of dipeptides in human plasma; type: in vitro ADME; details: 37° C., 30 minutes; for Residual Rate: 10 mM dipeptide
Procedure: Each of the dipeptides shown in Table 1 below was added to 0.75 ml of plasma collected and prepared from human to give a concentration of 10 mM, followed by reaction at 37° C. for 30 minutes.

[5] = Storage stability test at 40° C. for 30 days; type: physicochemical; details: in solution
[6] = Stability in solution under sterilizing conditions; type: physicochemical; details: solution 10 mM, pH 6.5, 110° C. for 60 minutes
[7] = tested on: γ-glutamyl cyclotransferase; details: J. Biol. Chem., vol. 253, No. 6, p. 1799-1806 (1978); cited from earlier work
[8] = Stability in nutrient preparations under heat sterilization; type: physicochemical
γ-glutamyl transferase = details: J. Biol. Chem., vol. 253, No. 6, p. 1799-1806 (1978); cited from earlier work
[9] = target: T1, γ-GTP (γ-glutamyl transferase) (Sus scrofa, UniProt P20735); assay: Hydrolysis of dipeptides by γ-GTP; type: biochemical; details: 5 mM dipeptide, Tris-HCl buffer 50 mM pH 7.0, γ-GTP from swine kidney, 37° C., 120 minutes
T1 construct: γ-GTP prepared from swine kidney was added to the solution; from tissue; host or cells: swine kidney
T1 sequence (P20735 380-568 limits assumed): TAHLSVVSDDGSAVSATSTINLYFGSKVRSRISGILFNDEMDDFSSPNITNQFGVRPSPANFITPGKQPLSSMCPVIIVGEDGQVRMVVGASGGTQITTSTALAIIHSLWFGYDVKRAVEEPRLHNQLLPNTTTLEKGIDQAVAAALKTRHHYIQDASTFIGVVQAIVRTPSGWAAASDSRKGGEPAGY
T1 sequence (P20735 1-379 limits assumed): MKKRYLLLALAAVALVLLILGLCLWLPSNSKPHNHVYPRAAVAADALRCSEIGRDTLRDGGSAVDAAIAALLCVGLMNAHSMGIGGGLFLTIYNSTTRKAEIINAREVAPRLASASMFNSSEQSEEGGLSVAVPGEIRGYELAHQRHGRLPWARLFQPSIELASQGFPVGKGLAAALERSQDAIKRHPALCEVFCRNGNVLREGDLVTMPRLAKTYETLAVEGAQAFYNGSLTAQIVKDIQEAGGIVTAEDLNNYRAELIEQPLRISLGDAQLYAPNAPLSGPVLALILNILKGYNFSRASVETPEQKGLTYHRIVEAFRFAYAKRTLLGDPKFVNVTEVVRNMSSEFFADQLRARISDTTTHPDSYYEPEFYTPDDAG

| SMILES | Concentration of Glutamine in kidney [1] | Appearance (release) of glutamine in blood [2] | Disappearance of the dipeptide from blood [2] | Residual Rate ([3]; 2 minutes) | Residual Rate ([3]; 5 minutes) | Residual Rate ([3]; 10 minutes) | Residual Rate ([3]; 20 minutes) | Residual Rate [4] | Decomposition in storage stability test [5] | Residual Rate after Storage at 40° C. for 30 days [5] | Decomposition under sterilizing conditions [6] | Residual Rate after Sterilization [6] | also measured |
| --- | --- | --- | --- | --- | --- | --- | --- | --- | --- | --- | --- | --- | --- |
| C[C@H](N)C(=O)N[C@@H](CCC(N)=O)C(=O)O [L-Alanyl-L-glutamine, reference compound] (H-Ala-Gln-OH) | 1.14 ± 0.09 μmole/g wet weight | rapid release of glutamine into the blood | disappeared extremely rapidly | 87% | 62% | 24% | 11% | 74% | – | – | – | – | – |
| NC(=O)CC[C@H](N)C(=O)O [L-Glutamine, reference compound] | – | – | – | – | – | – | – | – | 29% | 71% | 60% | 40% | – |
| NC(=O)CC[C@H](NC(=O)CC[C@H](N)C(=O)O)C(=O)O [γ-L-Glutamyl-L-glutamine] | 1.57 ± 0.12 μmole/g wet weight | slow | slow | 100% | 100% | 100% | 100% | 99% | not decomposed at all | 100% | not decomposed at all | 100% | Renal glutamine level ([1]; 20 minutes after administration, compared to prior to administration): significantly high renal glutamine level; Substrate for γ-glutamyl cyclotransferase [7]: effective substrate; Stability under the sterilizing conditions ([8]; Example 2 jelly-like nutrient preparation, heated at 100° C. for 30 minutes): remained stable; Stability under the sterilizing conditions ([8]; Example 3 composition for oral nutrient supplementation, 110° C. for 60 minutes): remained stable; Substrate for γ-glutamyl transferase (γ-glutamyl transferase): effective substrate; Hydrolysis by γ-GTP [9]: almost completely hydrolyzed; Hydrolysis in mouse plasma ([3]; up to 20 minutes): not hydrolyzed at all; Hydrolysis in human plasma ([4]; 10 mM): substantially free of hydrolysis |
| NC(=O)CC[C@H](NC(=O)[C@@H](N)CC(=O)O)C(=O)O [L-Aspartyl-L-glutamine] (H-Asp-Gln-OH) | – | – | – | – | – | – | – | 58% | – | – | – | – | – |
| NCC(=O)N[C@@H](CCC(N)=O)C(=O)O [Glycyl-L-glutamine] (H-Gly-Gln-OH) | – | – | – | – | – | – | – | 84% | – | – | – | – | – |
